From patent US20250136606A1, “MODULATORS OF TRPML, THEIR COMPOSITIONS AND METHODS OF USE” (Caraway Therapeutics, Inc., priority 2021, published 2025) come the findings set out here.

Holding throughout (type): cell-based
What all share (settings): fluorescent calcium assay

One assay deals with T1, TRPML2 (Homo sapiens, UniProt Q8IZK6).
T1 construct: expressed in transfected cells
T1 sequence (Q8IZK6 1-566): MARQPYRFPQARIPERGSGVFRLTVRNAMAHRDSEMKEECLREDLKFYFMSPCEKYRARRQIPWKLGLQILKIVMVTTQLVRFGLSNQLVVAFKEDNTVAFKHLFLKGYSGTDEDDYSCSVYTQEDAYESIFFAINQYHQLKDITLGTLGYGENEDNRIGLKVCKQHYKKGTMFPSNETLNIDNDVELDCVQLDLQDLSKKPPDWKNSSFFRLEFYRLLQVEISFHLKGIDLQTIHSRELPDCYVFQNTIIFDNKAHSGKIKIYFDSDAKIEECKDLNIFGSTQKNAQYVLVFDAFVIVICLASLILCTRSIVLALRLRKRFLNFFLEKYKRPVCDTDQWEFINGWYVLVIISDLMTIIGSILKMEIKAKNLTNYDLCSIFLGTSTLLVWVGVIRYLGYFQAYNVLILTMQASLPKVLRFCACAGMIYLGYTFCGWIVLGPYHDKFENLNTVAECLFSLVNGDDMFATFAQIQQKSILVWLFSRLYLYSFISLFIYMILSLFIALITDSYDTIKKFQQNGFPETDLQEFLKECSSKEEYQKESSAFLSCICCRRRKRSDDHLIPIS
The experiment in a line: Fluorescent TRPML2 assay (performed as for TRPML1, substituting the TRPML2 subtype). In short, it runs like this: (§1)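 HEK-293 Trex, dox-induced (0.5 ug/mL), mutated for surface expression. Fluo4-AM 1 micromolar load ~60 min, dark; buffer modified Ringer's, 10 mM Ca. Cpds 20 micromolar–6 nanomolar final, half-log, n=3. Read ex 480/em 540; % activity vs controls; EC50 nonlinear fit.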

Another assay deals with TRPML1 (Homo sapiens, UniProt Q9GZU1). The experiment in a line: Fluorescent TRPML1 assay (Fluo4-AM calcium fluorescence in doxycycline-induced HEK-293 Trex cells). In short, it runs like this:
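hTRPML1 (mutated for cell-surface expression) in HEK-293 Trex, dox 0.5 ug/mL o/n; Fluo4-AM 1 uM ~60 min, then ~60 min de-esterification, dark; modified Ringer's + 10 mM Ca. Cmpds 20 uM–6 nM final, half-log, n=3. Ex480/Em540; % activity vs ctrls; EC50 by nonlinear regression.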

The next assay has as its target T2, TRPML3 (Homo sapiens, UniProt Q8TDD5).
T2 construct: expressed in transfected cells
T2 sequence (Q8TDD5 1-553): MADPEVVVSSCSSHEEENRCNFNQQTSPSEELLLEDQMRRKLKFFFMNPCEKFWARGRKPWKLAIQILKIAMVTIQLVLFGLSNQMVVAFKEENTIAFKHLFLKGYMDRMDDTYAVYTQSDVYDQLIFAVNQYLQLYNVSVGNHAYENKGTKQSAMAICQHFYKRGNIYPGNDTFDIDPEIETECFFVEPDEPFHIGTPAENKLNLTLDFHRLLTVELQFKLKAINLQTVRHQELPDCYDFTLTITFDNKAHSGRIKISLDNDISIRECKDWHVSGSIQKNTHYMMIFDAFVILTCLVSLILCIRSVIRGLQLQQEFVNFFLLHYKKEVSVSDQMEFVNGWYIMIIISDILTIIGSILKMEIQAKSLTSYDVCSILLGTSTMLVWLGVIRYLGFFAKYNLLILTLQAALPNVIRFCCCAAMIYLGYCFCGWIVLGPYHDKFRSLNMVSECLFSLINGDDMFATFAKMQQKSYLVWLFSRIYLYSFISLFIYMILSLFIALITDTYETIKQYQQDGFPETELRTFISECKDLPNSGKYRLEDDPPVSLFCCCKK
The experiment in a line: Fluorescent TRPML3 assay (performed as for TRPML1, substituting the TRPML3 subtype). In short, it runs like this:
as §1

SMILES strings stand for the structures. Some results are limits rather than exact numbers.

Sequence of TRPML1 (Q9GZU1 whole entry L15A/L16A/L577A/L578A, form open): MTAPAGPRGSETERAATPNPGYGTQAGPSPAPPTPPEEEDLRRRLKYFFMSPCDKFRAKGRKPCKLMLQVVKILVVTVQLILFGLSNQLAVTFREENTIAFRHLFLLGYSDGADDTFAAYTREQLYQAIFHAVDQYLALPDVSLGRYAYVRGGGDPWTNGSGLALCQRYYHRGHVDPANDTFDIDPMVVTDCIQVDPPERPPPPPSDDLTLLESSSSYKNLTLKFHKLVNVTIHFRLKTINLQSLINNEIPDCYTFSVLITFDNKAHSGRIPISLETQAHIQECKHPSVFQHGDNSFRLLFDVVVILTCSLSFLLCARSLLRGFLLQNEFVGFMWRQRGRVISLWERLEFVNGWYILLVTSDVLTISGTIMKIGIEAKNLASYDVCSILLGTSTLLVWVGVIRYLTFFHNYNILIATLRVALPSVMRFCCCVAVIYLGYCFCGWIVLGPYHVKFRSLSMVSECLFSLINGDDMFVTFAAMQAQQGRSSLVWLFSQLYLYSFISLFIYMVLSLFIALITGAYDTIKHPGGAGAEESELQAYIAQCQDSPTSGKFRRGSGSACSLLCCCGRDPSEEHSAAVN

The term EC50 denotes the concentration giving half of the maximal effect. Take `C[C@@H]1CN(c2ncnc3c2c(-c2ccncc2)cn3-c2cc(F)cc(F)c2)CCN1C(=O)OC(C)(C)C` [Compound 216, tert-butyl (R)-4-(7-(3,5-difluorophenyl)-5-(pyridin-4-yl)-7H-pyrrolo[2,3-d]pyrimidin-4-yl)-2-methylpiperazine-1-carboxylate]: the EC50 at TRPML2 is 500 to 2000 nM; at TRPML1, less than 100 nM; at TRPML3, 100 to 500 nM.
In the same order, the values of `C[C@H]1CN(C(=O)OC(C)(C)C)CCN1c1ncnc2c1c(C1CC1)cn2-c1cccc(F)c1F` [Compound 217, tert-butyl (S)-4-(5-cyclopropyl-7-(2,3-difluorophenyl)-7H-pyrrolo[2,3-d]pyrimidin-4-yl)-3-methylpiperazine-1-carboxylate] are 500 to 2000 nM, 100 to 500 nM and 100 to 500 nM.
For `C[C@H]1CN(C(=O)OC(C)(C)C)CCN1c1ncnc2c1c(C1CC1)cn2-c1cc(F)ccc1F` [Compound 218, tert-butyl (S)-4-(5-cyclopropyl-7-(2,5-difluorophenyl)-7H-pyrrolo[2,3-d]pyrimidin-4-yl)-3-methylpiperazine-1-carboxylate] the same measures were 500 to 2000 nM, less than 100 nM and less than 100 nM.
For the compound `C[C@H]1CN(C(=O)OC(C)(C)C)CCN1c1ncnc2c1c(C1CC1)cn2-c1ccc(F)c(F)c1` [Compound 219, tert-butyl (S)-4-(5-cyclopropyl-7-(3,4-difluorophenyl)-7H-pyrrolo[2,3-d]pyrimidin-4-yl)-3-methylpiperazine-1-carboxylate], the figures for the EC50 on TRPML2, on TRPML1 and at TRPML3 were 100 to 500 nM, less than 100 nM and less than 100 nM, respectively.
Regarding `C[C@@H]1CN(c2ncnc3c2c(C2CC2)cn3-c2cccc(Cl)c2F)CCN1C(=O)OC(C)(C)C` [Compound 220, tert-butyl (R)-4-(7-(3-chloro-2-fluorophenyl)-5-cyclopropyl-7H-pyrrolo[2,3-d]pyrimidin-4-yl)-2-methylpiperazine-1-carboxylate], the concentration giving a half-maximal response (EC50) is 100 to 500 nM on TRPML2, less than 100 nM at TRPML1 and less than 100 nM at TRPML3.
On to `C[C@@H]1CN(c2ncnc3c2c(-c2ccccn2)cn3-c2cc(F)cc(Cl)c2)CCN1C(=O)OC(C)(C)C` [Compound 221, tert-butyl (R)-4-(7-(3-chloro-5-fluorophenyl)-5-(pyridin-2-yl)-7H-pyrrolo[2,3-d]pyrimidin-4-yl)-2-methylpiperazine-1-carboxylate], for which the EC50 at TRPML2 is 100 to 500 nM; on TRPML1, less than 100 nM; at TRPML3 it was less than 100 nM.
For the compound `C[C@@H]1CN(c2ncnc3c2c(-c2cccnc2)cn3-c2cc(F)cc(Cl)c2)CCN1C(=O)OC(C)(C)C` [Compound 222, tert-butyl (R)-4-(7-(3-chloro-5-fluorophenyl)-5-(pyridin-3-yl)-7H-pyrrolo[2,3-d]pyrimidin-4-yl)-2-methylpiperazine-1-carboxylate], the 50% effective concentration (EC50) was 500 to 2000 nM on TRPML2, less than 100 nM on TRPML1 and less than 100 nM on TRPML3.
Turning to `C[C@@H]1CN(c2ncnc3c2c(-c2cnccn2)cn3-c2cc(F)cc(Cl)c2)CCN1C(=O)OC(C)(C)C` [Compound 223, tert-butyl (R)-4-(7-(3-chloro-5-fluorophenyl)-5-(pyrazin-2-yl)-7H-pyrrolo[2,3-d]pyrimidin-4-yl)-2-methylpiperazine-1-carboxylate], the EC50 was 500 to 2000 nM at TRPML2, 100 to 500 nM on TRPML1 and 100 to 500 nM on TRPML3.
As for `C[C@@H]1CN(c2ncnc3c2c(C2CC2)cn3-c2cc(Cl)ccc2F)CCN1C(=O)OC(C)(C)C` [Compound 224, tert-butyl (R)-4-(7-(5-chloro-2-fluorophenyl)-5-cyclopropyl-7H-pyrrolo[2,3-d]pyrimidin-4-yl)-2-methylpiperazine-1-carboxylate], the EC50 at TRPML2 was 100 to 500 nM; on TRPML1 it was less than 100 nM; at TRPML3, less than 100 nM.
As to `C[C@H]1CN(C(=O)OC(C)(C)C)CCN1c1ncnc2c1c(-c1cccnc1)cn2-c1cccc(Cl)c1` [Compound 225, tert-butyl (S)-4-(7-(3-chlorophenyl)-5-(pyridin-3-yl)-7H-pyrrolo[2,3-d]pyrimidin-4-yl)-3-methylpiperazine-1-carboxylate], the results for the half-maximal effective concentration (EC50) on TRPML2, on TRPML1 and at TRPML3 were 100 to 500 nM, less than 100 nM and less than 100 nM, respectively.
Turning to `C[C@H]1CN(C(=O)OC(C)(C)C)CCN1c1ncnc2c1c(-c1cccnc1)cn2-c1cccc(F)c1` [Compound 226, tert-butyl (S)-4-(7-(3-fluorophenyl)-5-(pyridin-3-yl)-7H-pyrrolo[2,3-d]pyrimidin-4-yl)-3-methylpiperazine-1-carboxylate], the EC50 at TRPML2 lay in the range of 500 to 2000 nM; on TRPML1, 100 to 500 nM; at TRPML3, 100 to 500 nM.
As for `C[C@H]1CN(C(=O)OC(C)(C)C)CCN1c1ncnc2c1c(N1CCOCC1)cn2-c1cc(F)cc(F)c1` [Compound 228, tert-Butyl (S)-4-(7-(3,5-difluorophenyl)-5-morpholino-7H-pyrrolo[2,3-d]pyrimidin-4-yl)-3-methylpiperazine-1-carboxylate], the results for the concentration for a half-maximal effect (EC50) on TRPML2, on TRPML1 and at TRPML3 were 500 to 2000 nM, 100 to 500 nM and 100 to 500 nM, respectively.
As for `C[C@@H]1CN(C(=O)OC(C)(C)C)CCN1c1ncnc2c1c(N1CCOCC1)cn2-c1cccc(Cl)c1` [Compound 229, tert-Butyl (R)-4-(7-(3-chlorophenyl)-5-morpholino-7H-pyrrolo[2,3-d]pyrimidin-4-yl)-3-methylpiperazine-1-carboxylate], the values for the EC50 on TRPML2, on TRPML1 and on TRPML3 were 500 to 2000 nM, 500 to 2000 nM and 100 to 500 nM, respectively.
For `C[C@H]1CN(C(=O)OC(C)(C)C)CCN1c1ncnc2c1c(N1CCOCC1)cn2-c1cccc(Cl)c1` [Compound 230, tert-Butyl (S)-4-(7-(3-chlorophenyl)-5-morpholino-7H-pyrrolo[2,3-d]pyrimidin-4-yl)-3-methylpiperazine-1-carboxylate], the figures for the EC50 at TRPML2, on TRPML1 and at TRPML3 were 100 to 500 nM, 100 to 500 nM and less than 100 nM, respectively.
For the compound `C[C@H]1CN(C(=O)OC(C)(C)C)CCN1c1ncnc2c1c(-c1ccccc1F)cn2-c1ccccn1` [Compound 231, tert-butyl (S)-4-(5-(2-fluorophenyl)-7-(pyridin-2-yl)-7H-pyrrolo[2,3-d]pyrimidin-4-yl)-3-methylpiperazine-1-carboxylate], the EC50 was 100 to 500 nM on TRPML2, less than 100 nM at TRPML1 and less than 100 nM at TRPML3.
As for `C[C@@H]1CN(c2ncnc3c2c(C2CC2)cn3-c2cc(F)cc(F)c2)[C@@H](C)CN1C(=O)OC(C)(C)C` [Compound 232, tert-butyl (2R,5S)-4-(5-cyclopropyl-7-(3,5-difluorophenyl)-7H-pyrrolo[2,3-d]pyrimidin-4-yl)-2,5-dimethylpiperazine-1-carboxylate], the concentration for a half-maximal effect (EC50) was 500 to 2000 nM on TRPML2, less than 100 nM at TRPML1 and less than 100 nM at TRPML3.
On to `C[C@@H]1CN(c2ncnc3c2c(-c2cnccn2)cn3-c2cc(F)cc(F)c2)CCN1C(=O)OC(C)(C)C` [Compound 233, tert-butyl (R)-4-(7-(3,5-difluorophenyl)-5-(pyrazin-2-yl)-7H-pyrrolo[2,3-d]pyrimidin-4-yl)-2-methylpiperazine-1-carboxylate], for which the half-maximal effective concentration (EC50) on TRPML2 lay in the range of 500 to 2000 nM; on TRPML1, 500 to 2000 nM; at TRPML3, 100 to 500 nM.
Take `CC(C)(C)OC(=O)N1CCN(c2ncnc3c2c(C2CC2)cn3-c2cc(F)c(F)c(F)c2)CC1` [Compound 234, tert-butyl 4-(5-cyclopropyl-7-(3,4,5-trifluorophenyl)-7H-pyrrolo[2,3-d]pyrimidin-4-yl)piperazine-1-carboxylate]: the EC50 lay in the range of 500 to 2000 nM on TRPML2, 100 to 500 nM at TRPML1 and 100 to 500 nM on TRPML3.
